Measured values taken from patent US20210009575A1, “HYDROXYISOXAZOLINES AND DERIVATIVES THEREOF” (Bayer Aktiengesellschaft, priority 2017, published 2021).
Read-outs that look alike come from different tables or passages of the source.

Assays:
Puccinia recondita = experiment: In vivo preventive test on Puccinia recondita (brown rust on wheat); conditions: 264 h, read-out: efficacy
[1] = system: Colletotrichum lindemuthianum; experiment: Colletotrichum lindemuthianum in vitro cell test; format: cell-based; conditions: 144 h, read-out: efficacy
[2] = for LogP: method [a]: LC-UV, acidic range, Table 1
[3] = 500 ppm of active ingredient, wheat sprayed 24 hours before contamination, evaluated 11 days after the inoculation
[4] = 20 ppm of active ingredient, inhibition of fungal growth, 6 days incubation, liquid culture

SMILES	chromatographic logP (physchem)	pest or weed control at 500 ppm (Puccinia recondita; [3]) [%]	inhibition of growth at 20 ppm [1, 4] [%]	also measured
CN(C(=O)c1ccc(C(=O)/C=C(\O)C(F)(F)F)cc1)c1ccccc1 [Compound 1b-01]	2.17	–	–	–
CCc1noc(-c2ccc(C(=O)/C=C(\O)C(F)(F)F)cc2)n1 [Compound 1b-02, 1-[4-(3-Ethyl-1,2,4-oxadiazol-5-yl)phenyl]-4,4,4-trifluoro-3-hydroxy-but-2-en-1-one]	2.43	–	–	–
COC(=O)c1ccc(C(=O)CC(=O)C(F)(F)Cl)cc1 [Compound 1b-04, methyl 4-(4-chloro-4,4-difluoro-3-oxobutanoyl)benzoate]	2.11	–	–	–
Cc1ccc(C)n1-c1ccc(C(=O)CC(=O)C(F)(F)F)cc1 [Compound 1b-35, 1-[4-(2,5-dimethyl-1H-pyrrol-1-yl)phenyl]-4,4,4-trifluoro-1,3-butanedione]	3.21	–	–	–
OC1(C(F)(F)F)CC(c2ccc(C#CC3CC3)cc2)=NO1 (stereo not shown) [Ia-031, 3-[4-(cvclopropvlethvnvl)phenyl]-5-(trifluoromethyl)-4,5-dihydro-1,2-oxazol-5-ol]	3.41	80 to 89	90 to 100	–
CON=C(C)c1ccc(C2=NOC(O)(C(F)(F)F)C2)cc1 (stereo not shown) [Ia-037, 3-[4-(N-methoxvethanimidovl)phenyl]-5-(trifluoromethyl)-4,5-dihydro-1,2-oxazol-5-ol]	2.98	–	90 to 100	–
CC(=O)c1ccc(C2=NOC(O)(C(F)(F)F)C2)cc1 (stereo not shown) [Ia-038, 1-{4-[5-hydroxy-5-(trifluoromethyl)-4,5-dihydro-1,2-oxazol-3-yl]phenyl}ethanone]	2.11	90 to 100	90 to 100	–
CCc1noc(-c2ccc(C3=NOC(OC(C)=O)(C(F)(F)F)C3)cc2)n1 (stereo not shown) [Ia-095, [3-[4-(3-Ethyl-1,2,4-oxadiazol-5-yl)phenyl]-5-(trifluoromethyl)-4H-isoxazol-5-yl]acetate]	–	–	–	LogP [2]: 3.68^[a]
OC1(C(F)(F)F)CC(c2ccc(-c3ccc4sccc4c3)cc2)=NO1 (stereo not shown) [Ia-108]	–	–	–	LogP [2]: 3.94^[a]
CN(C)C(=O)Oc1ccc(C2=NOC(O)(C(F)(F)Cl)C2)cc1 (stereo not shown) [Ib-095, 4-{5-[Chloro(difluoro)methyl]-5-hydroxy-4,5-dihydro-1,2-oxazol-3-yl}phenyl dimethylcarbamate]	–	–	–	pest or weed control at 500 ppm (Puccinia recondita): 90 to 100%; inhibition of growth at 20 ppm [1]: 80 to 89%; chromatographic logP [2]: 2.35

Continued, in another order:

chromatographic logP (physchem)	SMILES	pest or weed control at 500 ppm (Puccinia recondita; [3]) [%]	inhibition of growth at 20 ppm [1, 4] [%]	also measured
1.78	CC(O)c1ccc(C2=NOC(O)(C(F)(F)F)C2)cc1 (stereo not shown) [Ia-044, 3-[4-(1-hydroxyethyl)phenyl]-5-(trifluoromethyl)-4,5-dihydro-1,2-oxazol-5-ol]	90 to 100	80 to 89	–
3.46	OC1(C(F)(F)F)CC(c2ccc(-c3ccc(F)cc3)cc2)=NO1 (stereo not shown) [Ia-075, 3-(4′-fluoro[biphenyl]-4-yl)-5-(trifluoromethyl)-4,5-dihydro-1,2-oxazol-5-ol]	80 to 89	90 to 100	–
1.86	OC1(C(F)(F)F)CC(c2ccc(-c3cncnc3)cc2)=NO1 (stereo not shown) [Ia-087, 3-[4-(pyrimidin-5-yl)phenyl]-5-(trifluoromethyl)-4,5-dihydro-1,2-oxazol-5-ol]	90 to 100	90 to 100	–
2.88	CCc1noc(-c2ccc(C3=NOC(O)(C(F)(F)F)C3)cc2)n1 (stereo not shown) [Ia-093, 3-[4-(3-Ethyl-1,2,4-oxadiazol-5-yl)phenyl]-5-(trifluoromethyl)-4H-isoxazol-5-ol]	90 to 100	90 to 100	–
0.63	NCc1ccc(C2=NOC(O)(C(F)(F)F)C2)cc1 (stereo not shown) [Ia-112, 3-(4-Aminomethyl-phenyl)-5-trifluoromethyl-4,5-dihydro-isoxazol-5-ol]	90 to 100	–	–
1.49	Nc1ccc(C2=NOC(O)(C(F)(F)F)C2)cc1 (stereo not shown) [Ia-114, 3-(4-aminophenyl)-4,5-dihydro-5-(trifluoromethyl)-5-isoxazolol]	90 to 100	80 to 89	–
2.76	O=C(Nc1ccc(F)cc1F)c1ccc(C2=NOC(O)(C(F)(F)Cl)C2)cc1 (stereo not shown) [Ib-030, 4-{5-[chloro(difluoro)methyl]-5-hydroxy-4,5-dihydro-1,2-oxazol-3-vl}-N-(2,4-difluorophenyl)benzamide]	–	–	–
1.84	O=C(O)c1ccc(C2=NOC(O)(C(F)(F)Cl)C2)cc1 (stereo not shown) [Ib-048, 4-{5-[chloro(difluoro)methyl]-5-hydroxy-4,5-dihydro-1,2-oxazol-3-yl}benzoic acid]	–	–	–
2.55	COC(=O)c1ccc(C2=NOC(O)(C(F)(F)Cl)C2)cc1 (stereo not shown) [Ib-049, methyl 4-{5-[chloro(difluoro)methyl]-5-hydroxy-4,5-dihydro-1,2-oxazol-3-yl}benzoate]	–	–	–
